Paper PMC9937538 (Journal of Medicinal Chemistry, 2022)
In brackets after ≈: the same amount, converted by molar mass. Several values for one entry are separate records, joined by “and”; a condition that tells them apart may be missing. Equal entries are not always repeated.

Tests used:
human cloned α1a-AR = target: T1, human cloned α1a-AR (Homo sapiens, UniProt P35348); experiment: α1a-AR binding assay ([3H]prazosin displacement); details: human cloned α1a-AR expressed in HEK293 cells
T1 construct: expressed in transfected cells
T1 sequence (P35348 1-466): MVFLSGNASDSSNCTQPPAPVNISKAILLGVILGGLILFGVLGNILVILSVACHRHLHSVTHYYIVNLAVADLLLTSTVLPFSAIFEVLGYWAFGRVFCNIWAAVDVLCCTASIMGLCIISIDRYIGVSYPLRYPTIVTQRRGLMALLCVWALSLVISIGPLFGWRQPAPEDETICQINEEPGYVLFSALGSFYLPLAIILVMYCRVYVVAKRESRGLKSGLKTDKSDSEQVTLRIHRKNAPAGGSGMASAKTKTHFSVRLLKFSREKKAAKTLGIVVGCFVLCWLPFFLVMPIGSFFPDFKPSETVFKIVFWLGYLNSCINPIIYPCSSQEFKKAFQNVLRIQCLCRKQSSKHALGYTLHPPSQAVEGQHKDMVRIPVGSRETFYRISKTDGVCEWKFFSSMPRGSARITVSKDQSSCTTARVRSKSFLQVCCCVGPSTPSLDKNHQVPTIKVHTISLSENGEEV
Source text: Since WB-4101 is a potent α1 antagonist, this adrenoreceptor subtype was chosen to assess the loss of adrenergic affinity.
Figure S3. […] Curves […]
from single experiments were fitted using the standard four parameter logistic equation and represent the mean ± S.E.M. of 4 observations, 2 experi-ments. X-axis: Log concentrations of competitive test compounds. Y-axis: normalized [3H]prazosin Bound/Total bound.
In the table are reported the affinity constants, expressed as pKi (-log Ki), of compounds 11, 12 and WB-4101 for human cloned α1a-AR expressed in HEK293 cells. The values represent the arithmetic mean ± S.E.M. of 4 observations, 2 experiments.
ND, not determinable; NA, not available.
Note: data generated from binding assays were analyzed using Prism 5.02 (GraphPad Software Inc., San Diego, CA) and were fitted to a parametric function to derive best estimates of the IC50 and slope factor (nH); IC50 values were then converted to binding constant Ki according to Cheng-Prus- […]
The details on the α1a-AR binding assay have been described before2.
(1 picture or pasted object on this page, not shown here)

Caco-2 cells [1] = experiment: MTT assay; type: cell-based, human; details: 10^–8 to 10^–5 M, 48 h
Experimental: (§1) The cytotoxicity of the active compound 12 was determined. Cell viability was assessed by the quantitative colorimetric method of the MTT reduction on Caco-2 and HepG2 cells.
(§2) A total of 3 × 10^4 Caco-2 and HepG2 cells/well were seeded in 96-well plates and treated with 11 and 12 from 10^–8 to 10^–5 M or vehicle (H2O) in complete growth media for 48 h at 37 °C under a 5% CO2 atmosphere. Subsequently, the treatment solvent was aspirated and 100 μL/well of 3-(4,5-dimethylthiazol-2-yl)-2,5-diphenyltetrazolium bromide (MTT) filtered solution was added. After 2 h of incubation at 37 °C under a 5% CO2 atmosphere, 0.5 mg/mL solution was aspirated and 100 μL/well of the lysis buffer (8 mM HCl + 0.5% NP-40 in DMSO) was added. After 10 min of slow shaking, the absorbance at 575 nm was read on a Synergy H1 fluorescence plate reader (Biotek, Bad Friedrichshall, Germany).

HepG2 cells = experiment: MTT assay; type: cell-based, human; details: 10^–8 to 10^–5 M, 48 h
Experimental: as §1, §2

[2] = target: T2, purified recombinant human DPP IV (Homo sapiens, UniProt P27487); experiment: In vitro DPP IV activity assay (fluorogenic Gly-Pro-AMC substrate); type: biochemical; details: mean from three different assays
T2 construct: purchased Cayman Chemicals (Michigan)
T2 sequence (P27487 whole entry): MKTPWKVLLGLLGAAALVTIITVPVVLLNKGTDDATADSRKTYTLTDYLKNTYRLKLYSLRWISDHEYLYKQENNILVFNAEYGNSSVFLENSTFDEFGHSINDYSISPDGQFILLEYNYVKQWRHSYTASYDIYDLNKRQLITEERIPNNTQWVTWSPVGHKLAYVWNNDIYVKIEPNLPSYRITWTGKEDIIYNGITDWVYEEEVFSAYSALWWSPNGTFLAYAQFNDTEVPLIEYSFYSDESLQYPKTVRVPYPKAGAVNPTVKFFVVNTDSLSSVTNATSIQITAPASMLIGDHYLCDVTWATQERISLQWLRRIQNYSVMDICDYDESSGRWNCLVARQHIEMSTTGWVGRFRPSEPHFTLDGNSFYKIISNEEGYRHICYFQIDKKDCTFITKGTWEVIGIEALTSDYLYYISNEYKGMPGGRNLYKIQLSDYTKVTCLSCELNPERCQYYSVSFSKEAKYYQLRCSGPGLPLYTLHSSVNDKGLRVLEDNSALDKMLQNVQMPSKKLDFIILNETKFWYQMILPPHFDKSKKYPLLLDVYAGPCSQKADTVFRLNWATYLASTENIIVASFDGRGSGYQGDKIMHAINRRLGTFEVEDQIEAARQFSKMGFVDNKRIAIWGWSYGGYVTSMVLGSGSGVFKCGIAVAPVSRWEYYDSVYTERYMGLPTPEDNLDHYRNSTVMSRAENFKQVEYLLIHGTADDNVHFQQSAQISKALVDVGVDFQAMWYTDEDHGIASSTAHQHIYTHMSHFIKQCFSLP
Experimental: The DPP IV inhibition activities of the entire sets of compounds were carried out on purified recombinant human DPP IV using conditions previously optimized.[35]
Four independent in vitro experiments were carried out, and each of those was performed in triplicate in a white half-volume 96-well solid plate. […] Afterward, the samples were mixed and 50 μL was transferred to each plate well. Each reaction was started by adding 50 μL of the substrate solution (200 μM H-Gly-Pro-7-amido-4-methylcoumarin (AMC)) to each well and incubated at 37 °C for 30 min. […] The DPP IV enzyme and the substrate solution were provided by Cayman Chemicals (Michigan).

[3] = Hepatic microsome stability; type: in vitro ADME; details: after 120 min of incubation
Experimental: To predict the metabolic fate as well as the susceptibility of compound 12 to phase I metabolism following the in vivo administration, it was incubated with human (Sekisui XenoTech, LLC), CD-1 mouse (BioIVT), and Sprague-Dawley (SD) rat liver microsomes (Corning), as described in the Experimental Section.

[4] = Solubility in phosphate-buffered saline (LC-MS/MS); type: physicochemical; details: pH 7.4, read-out: soluble concentration
Experimental: The solubility of compound 12 was determined in phosphate-buffered saline at a pH of 7.4 through a suitable liquid chromatography and tandem mass spectrometry (LC-MS/MS) method, as described in the Experimental Section.

hCA IX = hCA IX (Homo sapiens, UniProt Q16790); experiment: CA inhibition, stopped-flow CO2 hydration assay; details: read-out: Ki CA IX; stopped-flow technique, mean from three assays
Experimental: An applied photophysics stopped-flow instrument was used for assaying the CA-catalyzed CO2 hydration activity.[37]
The uncatalyzed rates were determined in the same manner and subtracted from the total observed rates. Stock solutions of the inhibitor (0.1 mM) were prepared in distilled–deionized water, and dilutions up to 0.01 nM were done thereafter with the assay buffer. Inhibitor and enzyme solutions were preincubated together for 15 min at room temperature prior to the assay to allow for the formation of the E–I complex. The inhibition constants were obtained by nonlinear least-squares methods using PRISM 3 and the Cheng–Prusoff equation, as reported earlier, and represent the mean from at least three different determinations. All CA isoforms were recombinant proteins obtained in-house, as reported earlier.[44]−[46]

Caco-2 cells [5] = experiment: Uptake by Caco-2 cells (intrinsic fluorescence, normalized with Janus Green); type: in vitro ADME, human; details: 1.0 μM
Experimental: The ability of compound 12 to be uptaken by Caco-2 cells was assessed, exploiting its natural behavior to emit fluorescence at 313 nm after excitation at 250 nm using a fluorescent plate reader. […] Fluorescence signals emitted at 313 nm by the compound localized at the intracellular level as a function of time have been normalized for the total amount of cells stained using Janus Green (OD 595 nm); therefore, the relative fluorescence unit (RFU) 313/595 nm after 15, 30, and 60 min of incubation was calculated. The RFU 313/595 nm of the blank samples, which represents the cellular background, was subtracted from each normalized fluorescence signal. […] In particular, compound 12 is absorbed by Caco-2 cells up to 2874 ± 383.1, 4562 ± 993.2, and 6250 ± 1163RFU after 15, 30, and 60 min, respectively (Figure 7).

[6] = target: T3, DPP IV activity expressed by nondifferentiated Caco-2 cells (Homo sapiens, UniProt P27487); type: cell-based
T3 construct: Caco-2 cells that express high levels of DPP IV on their cellular membranes; endogenous in cells; host or cells: Caco-2 cells (INSERM, Paris)
T3 sequence (P27487 whole entry): as above
Experimental: The data are represented as the means ± standard deviation (SD) of three independent experiments, performed in triplicate. Statistical analysis was performed by one-way analysis of variance (ANOVA), followed by Tukey’s post hoc test. ns: not significant; (**), p < 0.01, (****) p < 0.0001; C: control cells.
A total of 3 × 10^4 Caco-2 cells/well were seeded in black 96-well plates with clear bottoms.

NC(CCOc1ccc(S(N)(=O)=O)cc1)C1COc2ccccc2O1 (centres unmarked) [Compound 12, 4-(3-Amino-3-(1,4-benzodioxan)propoxy)benzenesulfonamide]
nH α1a-AR (slope factor) (human cloned α1a-AR): 0.97 ± 0.27
pKi α1a-AR (human cloned α1a-AR; mean ± S.E.M.): 6.61
cell viability (MTT reduction) (Caco-2 cells [1]): maintain their metabolic activity
cell viability (MTT reduction) (HepG2 cells): maintain their metabolic activity
IC50 [2]: 49 ± 4.5 nM
compound remaining ([3]; human liver microsomes): 72.6%
compound remaining ([3]; mouse liver microsomes): 27.5%
compound remaining ([3]; rat liver microsomes): 16.7%
solubility [4]: 224 µM (≈ 81.6 µg/mL)
Ki (hCA IX): 133 nM
intracellular fluorescence RFU 313/595 nm (uptake) (Caco-2 cells [5]; 15 min): 2874 ± 383.1 RFU
intracellular fluorescence RFU 313/595 nm (uptake) (Caco-2 cells [5]; 30 min): 4562 ± 993.2 RFU
intracellular fluorescence RFU 313/595 nm (uptake) (Caco-2 cells [5]; 60 min): 6250 ± 1163 RFU
inhibition of cellular DPP IV activity vs untreated cells [6]: 60.65 ± 4.92% and 71.86 ± 4.27%
